Assay results reported in ChEMBL document CHEMBL1799910, “Optimization of 1,2,3,4-tetrahydroacridin-9(10H)-ones as antimalarials utilizing structure-activity and structure-property relationships” (J Med Chem, 2011).
≈ marks a conversion by molar mass, not a printed value.

How the values were obtained:
Plasmodium falciparum [1] = test: Resistance index, ratio of EC50 for chloroquine, mefloquine, pyrimethamine and atovaquone-resistant Plasmodium falciparum TM90-C2B to EC50 for chloroquine and pyrimethamine-resistant Plasmodium falciparum W2; assay type: functional
[2] = Aqueous solubility of compound at pH 7.4 by HPLC analysis; settings: buffer
[3] = Partition coefficient, log D of the compound at pH 7.4 by HPLC analysis; settings: octanol/water
Plasmodium falciparum [4] = test: Antimalarial activity against chloroquine and pyrimethamine-resistant Plasmodium falciparum W2 infected in human A positive erythrocytes after 72 hrs by SYBR Green I assay; assay type: functional, organism-based; settings: W2, 72 h
Plasmodium falciparum [5] = test: Antimalarial activity against chloroquine, mefloquine, pyrimethamine and atovaquone-resistant Plasmodium falciparum TM90-C2B infected in human A positive erythrocytes after 72 hrs by SYBR Green I assay; assay type: functional, organism-based
[6] = Permeability of the compound by PAMPA method at pH 7.4; assay type: ADME; settings: read-out: permeability
J774 = test: Cytotoxicity against mouse J774 cells after 72 hrs by Cell titer 96 aqueous one solution cell proliferation assay; assay type: cell-based; settings: J774, 72 h
[7] = Cytotoxicity index, ratio of EC50 for mouse J774 cells to EC50 for chloroquine, mefloquine, pyrimethamine and atovaquone-resistant Plasmodium falciparum TM90-C2B; assay type: cell-based; settings: read-out: Ratio EC50

SMILES	Ratio EC50 (Plasmodium falciparum [1])	solubility [2]	logD [3]	EC50 (Plasmodium falciparum [4])	EC50 (Plasmodium falciparum [5])	Papp [6]	EC50 (J774)	selectivity ratio [7]
COc1cc2[nH]c3c(c(=O)c2cc1Cl)CSCC3	4.94	13 µM (≈ 3.66 µg/mL)	1	26.3 nM	130 nM	101 ×10⁻⁶ cm/s	> 10000 nM	≥ 100
Cc1cccc2[nH]c3c(c(=O)c12)CCCC3	0.73	99 µM (≈ 21.1 µg/mL)	2.1	6250 nM	4570 nM	87 ×10⁻⁶ cm/s	> 20000 nM	≥ 100
O=c1c2c([nH]c3cc(-c4c(F)cccc4F)ccc13)CCCC2	0.35	0.3 µM (≈ 0.0934 µg/mL)	3	72.3 nM	25.3 nM	339 ×10⁻⁶ cm/s	> 100 nM	≥ 100
COc1cc2[nH]c3c(c(=O)c2cc1Cl)CCCC3	0.79	17 µM (≈ 4.48 µg/mL)	2.2	30.6 nM	24.1 nM	85 ×10⁻⁶ cm/s	> 10000 nM	≥ 100
O=c1c2c([nH]c3cc(F)ccc13)CCCC2	1.76	46 µM (≈ 9.99 µg/mL)	1.7	67.7 nM	119 nM	21 ×10⁻⁶ cm/s	> 20000 nM	≥ 100
COc1cccc2[nH]c3c(c(=O)c12)CCCC3	0.66	76 µM (≈ 17.4 µg/mL)	1.2	8970 nM	5940 nM	17 ×10⁻⁶ cm/s	> 20000 nM	≥ 100
O=c1c2c([nH]c3c(F)c(F)ccc13)CCCC2	0.36	93 µM (≈ 21.9 µg/mL)	1.9	1050 nM	378 nM	38 ×10⁻⁶ cm/s	> 40000 nM	≥ 100
CCOC(=O)c1ccc2[nH]c3c(c(=O)c2c1)CCCC3	0.38	8 µM (≈ 2.17 µg/mL)	2.1	153 nM	58.3 nM	63 ×10⁻⁶ cm/s	> 5000 nM	≥ 100
Oc1c2c(nc3ccc(Br)cc13)CCCC2	0.32	2 µM (≈ 0.556 µg/mL)	2.1	197 nM	64.7 nM	63 ×10⁻⁶ cm/s	> 2000 nM	≥ 100
COc1cccc2[nH]c3c(c(=O)c12)CC(C)(C)CC3	0.67	83 µM (≈ 21.4 µg/mL)	1.9	5240 nM	3500 nM	54 ×10⁻⁶ cm/s	> 20000 nM	≥ 100
O=c1c2c([nH]c3c(F)cc(F)cc13)CCCC2	0.15	66 µM (≈ 15.5 µg/mL)	1.7	2690 nM	405 nM	29 ×10⁻⁶ cm/s	> 40000 nM	≥ 100
COc1ccc2[nH]c3c(c(=O)c2c1)CCCC3	1.03	78 µM (≈ 17.9 µg/mL)	1.5	2440 nM	2530 nM	16 ×10⁻⁶ cm/s	> 40000 nM	≥ 100
O=c1c2c([nH]c3ccc(I)cc13)CCCC2	0.44	4 µM (≈ 1.3 µg/mL)	2.3	378 nM	167 nM	96 ×10⁻⁶ cm/s	> 20000 nM	≥ 100
O=c1c2c([nH]c3c(F)cccc13)CCCC2	5.43	109 µM (≈ 23.7 µg/mL)	1.5	536 nM	2910 nM	17 ×10⁻⁶ cm/s	> 40000 nM	≥ 100
O=c1c2c([nH]c3cc(F)c(F)cc13)CCCC2	0.91	18 µM (≈ 4.23 µg/mL)	1.9	129 nM	118 nM	28 ×10⁻⁶ cm/s	> 10000 nM	≥ 100
CCOc1ccc2[nH]c3c(c(=O)c2c1)CCCC3	0.85	5 µM (≈ 1.22 µg/mL)	1.9	265 nM	226 nM	52 ×10⁻⁶ cm/s	> 5000 nM	≥ 100
CC1(C)CCc2c([nH]c3c(Cl)cccc3c2=O)C1	>1.42	20 µM (≈ 5.24 µg/mL)	3	6700 nM	> 9550 nM	407 ×10⁻⁶ cm/s	> 20000 nM	≥ 100
COc1ccc2c(=O)c3c([nH]c2c1OC)CCCC3	0.55	175 µM (≈ 45.4 µg/mL)	1.8	6340 nM	3460 nM	19 ×10⁻⁶ cm/s	> 20000 nM	≥ 100
O=c1c2c([nH]c3cc(C(F)(F)F)ccc13)CCC2	0.19	98 µM (≈ 24.8 µg/mL)	2.3	2320 nM	438 nM	60 ×10⁻⁶ cm/s	> 40000 nM	≥ 100
COc1ccc2c(=O)c3c([nH]c2c1)CCCCCC3	1.58	98 µM (≈ 25.2 µg/mL)	2.4	146 nM	230 nM	73 ×10⁻⁶ cm/s	> 40000 nM	≥ 100
COc1cc(OC)c2c(=O)c3c([nH]c2c1)CCCC3	<0.36	188 µM (≈ 48.7 µg/mL)	1.4	> 7290 nM	2590 nM	13 ×10⁻⁶ cm/s	> 40000 nM	≥ 100
Cc1cccc2[nH]c3c(c(=O)c12)CC(C)(C)CC3	1.37	45 µM (≈ 10.9 µg/mL)	2.7	3020 nM	4130 nM	269 ×10⁻⁶ cm/s	> 40000 nM	≥ 100
CC1(C)CCc2[nH]c3ccccc3c(=O)c2C1	0.7	35 µM (≈ 7.96 µg/mL)	1.8	421 nM	295 nM	43 ×10⁻⁶ cm/s	> 20000 nM	≥ 100
CC(C)c1ccc2[nH]c3c(c(=O)c2c1)CCCC3	0.83	30 µM (≈ 7.24 µg/mL)	2.2	879 nM	732 nM	100 ×10⁻⁶ cm/s	> 40000 nM	≥ 100
Cc1cc(C)c2[nH]c3c(c(=O)c2c1)CCCC3	0.72	108 µM (≈ 24.5 µg/mL)	2.2	1070 nM	768 nM	58 ×10⁻⁶ cm/s	> 40000 nM	≥ 100
COc1ccc2[nH]c3c(c(=O)c2c1)CC(C)(C)CC3	>1.16	38 µM (≈ 9.78 µg/mL)	2	8400 nM	> 9720 nM	73 ×10⁻⁶ cm/s	> 20000 nM	≥ 100
